Experimental data published in article PMC7956643, “Synthesis of Novel Pyrido[1,2-c]pyrimidine Derivatives with 6-Fluoro-3-(4-piperidynyl)-1,2-benzisoxazole Moiety as Potential SSRI and 5-HT1A Receptor Ligands” (International Journal of Molecular Sciences, 2021).

Tests used:
[1] = molecular target: T1, human 5-HT1A receptor (Homo sapiens, UniProt P08908); assay: 5-HT1A radioligand binding assay; settings: [3H]-8-OH-DPAT 1 nM; membranes from CHO-K1 cells with human 5-HT1A receptor
T1 construct: purchased PerkinElmer; host or cells: CHO-K1 cells, stably transfected
T1 sequence (P08908 1-422): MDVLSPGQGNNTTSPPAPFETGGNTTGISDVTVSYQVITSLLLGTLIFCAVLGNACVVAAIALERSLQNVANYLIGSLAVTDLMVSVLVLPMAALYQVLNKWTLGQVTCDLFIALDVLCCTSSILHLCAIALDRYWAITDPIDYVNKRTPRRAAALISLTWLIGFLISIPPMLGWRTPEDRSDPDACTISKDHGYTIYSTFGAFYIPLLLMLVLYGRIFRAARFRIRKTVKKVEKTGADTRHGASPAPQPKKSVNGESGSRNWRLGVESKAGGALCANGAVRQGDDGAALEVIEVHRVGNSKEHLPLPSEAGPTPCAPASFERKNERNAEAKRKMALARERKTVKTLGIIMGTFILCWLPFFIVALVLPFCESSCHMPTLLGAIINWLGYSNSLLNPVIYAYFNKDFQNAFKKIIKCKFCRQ
Procedure: Radioligand binding was performed using membranes from CHO-K1 cells stably transfected with the human 5-HT1A receptor (PerkinElmer, Fremont, CA, USA). All assays were carried out in duplicate. Then, 50 µL working solution of the tested compounds, 50 µL [^3H]-8-OH-DPAT (final concentration 1 nM) and 150 µL diluted membranes (20 µg protein per well) prepared in assay buffer (50 mM Tris, pH 7.4, 10 mM MgSO4, 0.5 mM EDTA, 0.1% ascorbic acid) were transferred to a polypropylene 96-well microplate using 96-wells pipetting station Rainin Liquidator (MettlerToledo, Columbus, OH, USA). […] The reaction was terminated by rapid filtration through GF/B filter mate, presoaked with 0.5% polyethyleneimine for 30 min. Ten rapid washes with 200 µL 50 mM Tris buffer (4 °C, pH 7.4) were performed using an automated harvester system—Harvester-96 MACH III FM (Tomtec, Hamden, CT, USA). […] Data were fitted to a one-site curve-fitting equation with Prism 6 (GraphPad Software, San Diego, CA, USA) and Ki values were estimated from the Cheng–Prusoff equation.

[2] = molecular target: T2, 5-HT2A receptors (Homo sapiens, UniProt P28223); assay: 5-HT2A radioligand binding assay; settings: [3H]-ketanserin; HEK293 cells, human receptor
T2 construct: expressed in transfected cells
T2 sequence (P28223 whole entry): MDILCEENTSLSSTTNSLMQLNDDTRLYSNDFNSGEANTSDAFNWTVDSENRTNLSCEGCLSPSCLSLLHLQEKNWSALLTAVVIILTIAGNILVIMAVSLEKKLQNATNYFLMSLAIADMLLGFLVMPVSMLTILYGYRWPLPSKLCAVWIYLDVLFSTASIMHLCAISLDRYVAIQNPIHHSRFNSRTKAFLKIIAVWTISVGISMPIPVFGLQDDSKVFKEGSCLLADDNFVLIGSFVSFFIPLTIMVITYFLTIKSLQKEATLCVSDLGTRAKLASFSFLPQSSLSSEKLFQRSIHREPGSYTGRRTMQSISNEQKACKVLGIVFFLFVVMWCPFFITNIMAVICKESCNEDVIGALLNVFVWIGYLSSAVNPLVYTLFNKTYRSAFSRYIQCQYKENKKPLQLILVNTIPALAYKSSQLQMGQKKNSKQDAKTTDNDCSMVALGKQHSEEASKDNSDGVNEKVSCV
Procedure: In vitro radioligand binding assays for 5-HT2A, 5-HT6, 5-HT7 and D2 receptors were carried out using methods published by Zajdel et al.. For the assays, HEK293 cell cultures stably expressing the investigated human receptors were used. Cell pellets were thawed and homogenized in 20 vol of assay buffer using an Ultra Turrax tissue homogenizer, then centrifuged twice at 35000 g for 20 min at 4 °C, with incubation for 15 min at 37 °C in between. The composition of the assay buffers was as follows: for 5-HT2A receptors—50 mM Tris-HCl, 0.1 mM EDTA, 4 mM MgCl2 and 0.1% ascorbate; for 5-HT6 receptors—50 mM Tris-HCl, 0.5 mM EDTA, 4 mM MgCl2; for 5-HT7 receptors—50 mM Tris-HCl, 4 mM MgCl2, 10 µM pargyline and 0.1% ascorbate; for D2 receptors—50 mM Tris-HCl, 1 mM EDTA, 4 mM MgCl2, 120 mM NaCl, 5 mM KCl, 1.5 mM CaCl2 and 0.1% ascorbate. […] The process of equilibration was terminated by rapid filtration through Unifilter plates with a 96-well cell harvester, and radioactivity retained on the filters was quantified on a Microbeta plate reader (PerkinElmer, USA). For displacement studies, the assay samples contained as radioligands (PerkinElmer): 2 nM [^3H]-ketanserin (spec. act. 53.4 Ci/mmol) for 5-HT2A receptors; 2 nM [^3H]-LSD (spec. act. 83.6 Ci/mmol) for 5-HT6 receptors; 0.6 nM [^3H]-5-CT (spec. act. 39.2 Ci/mmol) for 5-HT7 receptors and [^3H]-raclopride (spec. act. 76.0 Ci/mmol) for D2 receptors. […] Each compound was tested in triplicate at 7–8 concentrations (10^-11-10^-4 M). The inhibition constants (Ki) were calculated from the Cheng–Prusoff equation [46]. Results were expressed as means of at least two separate experiments.

[3] = molecular target: T3, 5-HT7 receptors (Homo sapiens, UniProt P34969); assay: 5-HT7 radioligand binding assay; settings: [3H]-5-CT; HEK293 cells, human receptor
T3 construct: expressed in transfected cells
T3 sequence (P34969 whole entry): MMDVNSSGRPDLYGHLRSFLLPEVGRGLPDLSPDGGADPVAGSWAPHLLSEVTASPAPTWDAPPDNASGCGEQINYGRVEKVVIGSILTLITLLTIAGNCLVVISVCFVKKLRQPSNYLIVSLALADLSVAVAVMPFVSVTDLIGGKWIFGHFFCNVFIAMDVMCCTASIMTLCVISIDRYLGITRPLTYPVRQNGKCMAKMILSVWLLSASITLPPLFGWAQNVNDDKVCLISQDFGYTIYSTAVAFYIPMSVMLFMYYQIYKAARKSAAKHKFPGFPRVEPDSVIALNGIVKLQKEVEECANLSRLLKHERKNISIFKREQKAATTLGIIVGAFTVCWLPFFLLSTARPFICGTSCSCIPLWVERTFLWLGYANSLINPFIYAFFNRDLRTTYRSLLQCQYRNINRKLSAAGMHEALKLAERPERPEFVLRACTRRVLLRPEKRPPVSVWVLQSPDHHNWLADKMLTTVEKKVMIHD
Procedure: In vitro radioligand binding assays for 5-HT2A, 5-HT6, 5-HT7 and D2 receptors were carried out using methods published by Zajdel et al.. For the assays, HEK293 cell cultures stably expressing the investigated human receptors were used. Cell pellets were thawed and homogenized in 20 vol of assay buffer using an Ultra Turrax tissue homogenizer, then centrifuged twice at 35000 g for 20 min at 4 °C, with incubation for 15 min at 37 °C in between. The composition of the assay buffers was as follows: for 5-HT2A receptors—50 mM Tris-HCl, 0.1 mM EDTA, 4 mM MgCl2 and 0.1% ascorbate; for 5-HT6 receptors—50 mM Tris-HCl, 0.5 mM EDTA, 4 mM MgCl2; for 5-HT7 receptors—50 mM Tris-HCl, 4 mM MgCl2, 10 µM pargyline and 0.1% ascorbate; for D2 receptors—50 mM Tris-HCl, 1 mM EDTA, 4 mM MgCl2, 120 mM NaCl, 5 mM KCl, 1.5 mM CaCl2 and 0.1% ascorbate. All assays were incubated in total volume of […] in 96-well microtitre plates for 1 h at 37 °C, except for 5-HT2A receptors which were incubated at room temperature for 1.5 h. The process of equilibration was terminated by rapid filtration through Unifilter plates with a 96-well cell harvester, and radioactivity retained on the filters was quantified on a Microbeta plate reader (PerkinElmer, USA). For displacement studies, the assay samples contained as radioligands (PerkinElmer): 2 nM [^3H]-ketanserin (spec. act. 53.4 Ci/mmol) for 5-HT2A receptors; 2 nM [^3H]-LSD (spec. act. 83.6 Ci/mmol) for 5-HT6 receptors; 0.6 nM [^3H]-5-CT (spec. act. 39.2 Ci/mmol) for 5-HT7 receptors and [^3H]-raclopride (spec. act. 76.0 Ci/mmol) for D2 receptors. […] Each compound was tested in triplicate at 7–8 concentrations (10^-11-10^-4 M). The inhibition constants (Ki) were calculated from the Cheng–Prusoff equation [46]. Results were expressed as means of at least two separate experiments.

SMILES | Ki [1] | Ki [2] | Ki [3]
O=c1c(-c2ccccc2)c2ccccn2c(=O)n1CCCCN1CCC(c2noc3cc(F)ccc23)CC1 [Compound 6a, 4-Phenyl-2-{4-[4-(6-fluoro-1,2-benzoxazol-3-yl)-1-piperidyl]butyl}-pyrido[1,2-c]pyrimidine-1,3-dione] | 23 ± 1 nM | 17 ± 3 nM | 62 ± 5 nM
O=c1c(-c2ccccc2Cl)c2ccccn2c(=O)n1CCCCN1CCC(c2noc3cc(F)ccc23)CC1 [Compound 6d, 4-(2-Chlorophenyl)-2-{4-[4-(6-fluoro-1,2-benzoxazol)-1-piperidyl]butyl}-pyrido[1,2-c]pyrimidine-1,3-dione] | 11 ± 1.4 nM | 20 ± 4 nM | 109 ± 14 nM
